These results are taken from PMC6411751, “Use of machine learning to identify novel, behaviorally active antagonists of the insect odorant receptor co-receptor (Orco) subunit” (Scientific Reports, 2019).

Some results are limits rather than exact numbers.

The first experiment has as its target T1, Agam\Orco (Anopheles gambiae, UniProt Q7QCC7).
T1 construct: expressed in transfected cells; host or cells: Xenopus laevis oocytes injected with capped cRNA (plasmid pT7TS, gift of L. Zwiebel)
T1 sequence (Q7QCC7 1-478): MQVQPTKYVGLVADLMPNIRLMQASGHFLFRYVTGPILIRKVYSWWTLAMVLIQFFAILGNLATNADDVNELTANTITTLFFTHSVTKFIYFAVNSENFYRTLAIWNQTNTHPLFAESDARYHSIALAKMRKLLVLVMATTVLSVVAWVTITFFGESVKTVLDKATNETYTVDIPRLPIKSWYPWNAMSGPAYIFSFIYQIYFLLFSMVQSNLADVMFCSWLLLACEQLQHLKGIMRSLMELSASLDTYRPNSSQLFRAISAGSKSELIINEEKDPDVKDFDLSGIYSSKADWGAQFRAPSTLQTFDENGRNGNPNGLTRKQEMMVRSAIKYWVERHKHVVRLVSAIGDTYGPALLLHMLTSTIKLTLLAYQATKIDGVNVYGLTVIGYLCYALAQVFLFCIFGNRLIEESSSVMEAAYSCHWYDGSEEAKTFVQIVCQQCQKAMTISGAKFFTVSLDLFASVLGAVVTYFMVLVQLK
The experiment is described as follows: cell-based. The format is cell-based.
Settings: not given
The procedure:
A 2 hr incubation with collagenase B (Roche) was used to remove follicle cells from oocytes. Capped cRNA for Agam\Orco was synthesized using mMessage mMachine kits (Thermo Fisher Scientific). 25 ng of cRNA was injected into stage V–VI oocytes, followed by a 2–5 day incubation at 18 °C in Barth’s saline (in mM: 88 NaCl, 1 KCl, 2.4 NaHCO3, 0.3 CaNO3, 0.41 CaCl2, 0.82 MgSO4, 15 HEPES, pH 7.4, and 0.05 g/L tetracycline, 0.05 g/L ciprofloxacin, 0.1 g/L amikacin) prior to electrophysiological recordings.
An automated parallel electrophysiology system (OpusExpress 6000 A, Molecular Devices) was used to record Orco agonist (OLC12) or odorant induced currents under two-electrode voltage clamp. Oocytes were perfused with ND96 (in mM: 96 NaCl, 2 KCl, 1 CaCl2, 1 MgCl2, 5 HEPES, pH 7.4). DMSO was used to prepare 1 M or 100 mM stock solutions of test compounds, which were then diluted in ND96 on the day of the experiment. Compounds were applied at a flow rate of 1.0 mL/min, with extensive washing in ND96 at 4.6 mL/min between applications. Micropipettes with resistances of 0.2–2.0 MΩ were filled with 3 M KCl. The holding potential was −70 mV. Current responses were filtered (4-pole, Bessel, low pass) at 20 Hz (−3 db) and sampled at 100 Hz. OpusXpress 1.1 software (Molecular Devices) was used to capture and store current responses.
To measure antagonist activity at Orco, Agam\Orco was activated by the Orco agonist OLC12[34]. […] The current response to OLC12 in the presence of antagonist candidate was compared to the mean of the preceding two responses to OLC12 alone and presented as a percentage[34],[35]. This value was then normalized to the value obtained when the assay was run in the absence of antagonist candidate (sham).
During development of the training panel (Fig. 2, Tables S1 and S2), all compounds not previously known to be Orco antagonists were tested at a concentration of 3 mM. […] Concentration-inhibition curves were constructed for all compounds eliciting >20 percent inhibition at 3 mM. The same concentration and criteria were used during screening of predicted actives (Fig. 4D) and predicted inactives (Fig. 5C).
Clampfit 9.1 software (Molecular Devices) was used to perform initial analysis of electrophysiological data. Prism 7 (Graphpad) was used for curve fitting. Concentration-inhibition data were fit to the equation: I = Imax/(1 + (X/IC50)^n) where I represents the current response at a given concentration of inhibitor, X; Imax is the maximal response in the absence of inhibitor; IC50 is the concentration of inhibitor present that allows a half maximal response from OLC12; n is the apparent Hill coefficient.
The term IC50 denotes the concentration needed to halve the response being measured. The molecule `CC(C)c1ccc(CO)cc1` [4-isopropylbenzyl alcohol] registered an IC50 of 605 ± 116 µM.

As for `CC(C)(C)c1ccc(O)c(C(C)(C)C)c1` [2,4-di-tert-butylphenol], the IC50 is 15 ± 1 µM and the “more potent than BMP” value is given as 3 fold. The molecule `c1ccc(CNc2ccccc2)cc1` [n-benzylaniline] gave an IC50 of 114 ± 12 µM. As for `Cc1ccc(O)c(C(C)(C)C)c1` [2-tert-butyl-4-methylphenol], the “more potent than BMP” value stood at 2 fold.

Take `CCc1cccc(CC)c1O` [2,6-diethylphenol]: the IC50 was determined as 86 ± 17 µM.

As for `CCCCO` [1-butanol], the “inhibition of Agam\Orco (OLC12 response) at 3 mM” value is no more than 20%. As to `CC(C)c1cccc(C(C)(C)C)c1O` [2-tert-butyl-6-isopropylphenol], the IC50 was determined as 50 ± 7 µM. In turn, `CC(C)(C)c1ccccc1O` [2-tert-butylphenol] gave an IC50 of 32 ± 5 µM.

Turning to `CC(C)c1cccc(C(C)C)c1O` [propofol, 2,6-diisopropylphenol, reference compound], the IC50 is 47 ± 3 µM and the Orco antagonist activity entry was “has Orco antagonist activity”.

Staying with this experiment, now noted: 1 mM compound, 30 µM OLC12.
Take `CCN(CC)C(=O)c1cccc(C)c1` [DEET, N,N-diethyl-m-toluamide, reference compound]: the “inhibition of OLC12 activation” value is given as “little or no inhibition”.

The experiment is the same for the next values; noted with them: 3 mM compound, 30 µM OLC12.
As for `CN(C)C` [trimethylamine], the “inhibition of Agam\Orco (OLC12 response) at 3 mM” value is recorded as no more than 20%.

Staying with this experiment, now noted: Agam\Orco IC50 compared with 3I6MC.
Turning to `Cc1ccc(C(C)C)c(O)c1` [thymol], the “change in potency relative to 3I6MC” value is given as “slightly decreased potency”.

The experiment is the same for the next values; noted with them: Agam\Orco IC50 compared with BMP.
Turning to `CCc1cccc(CC)c1O` [2,6-diethylphenol], the “change in potency relative to BMP” value is recorded as “slightly decreased potency”. Turning to `CC(C)c1cccc(C(C)(C)C)c1O` [2-tert-butyl-6-isopropylphenol], the “change in potency relative to BMP” value was “no effect on potency”. Still for that read-out and setting: the value for `CC(C)(C)c1cccc(C(C)(C)C)c1O` [2,6-di-tert-butylphenol] was “slightly decreased potency”. As for `Cc1cc(C)c(O)c(C)c1` [2,4,6-trimethylphenol], the “loss of potency relative to BMP” value is 4.5 fold. For `CC(C)(C)c1ccccc1O` [2-tert-butylphenol], the “change in potency relative to BMP” value is given as “slight increase in potency”.

The same experiment, now with this note: Table 2; inhibition of Agam\Orco activated by 30 µM OLC12; mean ± SEM (n = 3–9); read-out: IC50.
Regarding `Cc1ccc(O)c(C(C)(C)C)c1` [2-tert-butyl-4-methylphenol], the IC50 is 25 ± 3 µM. Turning to `CC(C)(C)c1cccc(C(C)(C)C)c1O` [2,6-di-tert-butylphenol], the IC50 amounted to 92 ± 9 µM. As for `Cc1cc(C)c(O)c(C)c1` [2,4,6-trimethylphenol], the IC50 is 212 ± 29 µM.

Turning to `CC(C)c1ccc(O)c(C(C)C)c1` [C00014, 2,4-diisopropylphenol], the IC50 was 37 ± 7 µM.

The same experiment, now with this note: Table S1; training actives; Agam\Orco activated by 30 µM OLC12; mean ± SEM (n = 3-8); read-out: IC50.
With `c1ccsc1` [thiophene], the IC50 is 2670 ± 147 µM.

As to `COc1ccccc1O` [guaiacol], the IC50 worked out at 4030 ± 654 µM. The same measure, in the same setting: the value for `C=C(C)[C@@H]1CC[C@@H](C)C(=O)C1` [(+)-dihydrocarvone] was 1240 ± 219 µM; that for `Cc1ccc(CNC(=O)c2cccs2)cc1` [OX3a, N-(4-methylbenzyl)-2-thiophenecarboxamide, reference compound] was 202 ± 15 µM. For `C=CCc1ccc(OC)c(OC)c1` [methyl eugenol], the IC50 amounted to 525 ± 40 µM. Take `CCCCCCOC(C)=O` [hexyl acetate]: the IC50 was 841 ± 121 µM. Regarding `CCN(CC)C(=O)c1cccc(C)c1` [DEET, N,N-diethyl-m-toluamide, reference compound], the IC50 came out at 4480 ± 369 µM. As to `CC(C)OC(=O)C=Cc1ccccc1` [isopropyl cinnamate], the IC50 turned out to be 153 ± 14 µM.

Consider `NCCc1c[nH]c2ccccc12` [tryptamine], for which the IC50 was 48 ± 10 µM. Consider `COc1nccnc1CC(C)C` [2-isobutyl-3-methoxypyrazine], for which the IC50 was determined as 1020 ± 83 µM. Consider `SCCCCCCCCCS` [1,9-nonanedithiol], for which the half-inhibitory concentration (IC50) turned out to be 1600 ± 299 µM.

Regarding `CCOC(=O)C=Cc1c(Cl)cccc1Cl` [ethyl 2,6-dichlorocinamate], the IC50 is 93 ± 11 µM. With `CC12CCC(CC1)C(C)(C)O2` [eucalyptol], the IC50 came out at 2960 ± 255 µM. On the same count and under the same terms, the value for (−)-terpinen-4-ol was 678 ± 78 µM; that for `CC1=NC(C)SC1C` (stereo not drawn) [2,5-dihydro-2,4,5-trimethylthiazoline] was 13000 ± 2400 µM. Same read-out and setting: the value for `COc1ccc(OC)cc1` [1,4-dimethoxybenzene] was 1100 ± 172 µM. Turning to `Brc1ccccc1` [bromobenzene], the IC50 came out at 1160 ± 143 µM. Regarding `CC1(O)CSC(C)(O)CS1` (stereo not drawn) [2,5-dimethyl-2,5-dihydroxy-1,4-dithiane], the half-maximal inhibitory concentration (IC50) stood at 4860 ± 1270 µM. Take `CCCC=O` [butyraldehyde]: the IC50 came to 3000 ± 333 µM. As to `Cc1cc(C)c(NC(=O)c2cccs2)c(C)c1` [OX1L, N-mesityl-2-thiophenecarboxamide, reference compound], the IC50 amounted to 58 ± 10 µM. On to `Cc1ccccc1` [toluene], for which the IC50 came out at 1600 ± 243 µM. Turning to `CC(C)CCOC(=O)Cc1ccccc1` [isoamyl phenylacetate], the IC50 was 692 ± 66 µM. Take `COc1ccccc1` [anisole]: the IC50 is 1170 ± 243 µM. Turning to `Cc1cccc(O)c1` [m-cresol], the half-maximal inhibitory concentration (IC50) was determined as 1280 ± 238 µM. Same read-out and setting: the value for `O=Cc1ccc2c(c1)OCO2` [piperonal] was 2570 ± 244 µM. For `CCCCCCC1CCC(=O)O1` (stereo not drawn) [γ-decalactone], the IC50 came to 948 ± 153 µM. Turning to `C=C(C)C1CCC(C)C(O)C1` (single isomer, unassigned; (-)) [(-)-dihydrocarveol], the half-maximal inhibitory concentration (IC50) worked out at 818 ± 81 µM. Consider `O=C(/C=C/c1ccccc1)OCc1ccccc1` [benzyl cinnamate], for which the IC50 was determined as 492 ± 64 µM. `CCCCc1ccc(NC(=O)CSc2nnc(-c3ccccn3)n2CC)cc1` [OLC15, N-(4-butylphenyl)-2-((4-Et-5-(2-pyridinyl)-4H-1,2,4-triazol-3-yl)thio)acetamide, reference compound]: the IC50 worked out at 10 ± 2 µM. The same measure, in the same setting: the value for `CCOC(=O)c1ccccc1` [ethyl benzoate] was 569 ± 44 µM. In the case of `CC1(C)C(=O)[C@@]2(C)CC[C@H]1C2` [L-fenchone], the IC50 is 1330 ± 105 µM. Regarding `C#CC(O)CCCCC` (stereo not drawn) [1-octyn-3-ol], the half-inhibitory concentration (IC50) worked out at 870 ± 60 µM. With `O=CCCc1ccccc1` [hydrocinnamaldehyde], the IC50 stood at 220 ± 24 µM. Same read-out and setting: the value for `COc1ccccc1OC` [veratrole] was 5420 ± 845 µM.

Consider `Cc1ccc(C(C)C)c(O)c1` [thymol], for which the IC50 was determined as 61 ± 10 µM. `O=C1CCCCCCCCCC1` [cycloundecanone]: the IC50 came to 366 ± 28 µM. Turning to `CCCCC1Cc2ccccc2C1=O` (stereo not drawn) [2-butyl-1-indanone], the IC50 is 289 ± 28 µM. In the case of `C=C(C)[C@H]1CC=C(C)C(=O)C1` [(S)-carvone], the IC50 stood at 1280 ± 92 µM.

With `CC1CCC(C(C)C)C(O)C1` (single isomer, unassigned; (-)) [(-)menthol], the IC50 was found to be 433 ± 78 µM. For the molecule `CCCCCSC` [amyl methyl sulfide], the IC50 was determined as 915 ± 77 µM. On to `O=Cc1ccc(O)cc1` [4-hydroxybenzaldehyde], for which the half-maximal inhibitory concentration (IC50) is 3620 ± 449 µM. Turning to `CC(C)=CCC[C@@H](C)CC=O` [(R)-(+)-citronellal], the IC50 was found to be 651 ± 58 µM.

Staying with this experiment, now noted: read-out: inhibition of Agam\Orco (OLC12 response) at 3 mM; 3 mM compound, 30 µM OLC12.
The inhibition is the change of the read-out against control, counted positive when it falls. Regarding `Oc1ccccc1O` [catechol], the inhibition at 3000 µM is no more than 20%. Take `O=C(O)CCCCCBr` [6-bromohexanoic acid]: the inhibition at 3000 µM is no more than 20%. As to `O=C1CCCC1` [cyclopentanone], the inhibition at 3000 µM was no more than 20%. Same read-out and setting: the value for `CCC(=O)C(C)=O` [2,3-pentanedione] was no more than 20%; that for `c1cnccn1` [pyrazine] was no more than 20%. For `CC1=CCC2CC1C2(C)C` (stereo not drawn) [α-pinene], the inhibition at 3000 µM was no more than 20%. Consider `N[C@@H](Cc1c[nH]c2ccccc12)C(=O)O` [tryptophan], for which the inhibition at 3000 µM is no more than 20%. On to `N[C@@H](Cc1c[nH]cn1)C(=O)O` [histidine], for which the inhibition at 3000 µM was no more than 20%. `O=C(O)CCCCBr` [5-bromovaleric acid]: the inhibition at 3000 µM is no more than 20%. On to `CC1=CC(=O)CC(C)(C)C1` [isophorone], for which the inhibition at 3000 µM is no more than 20%.
